# Changes are numbered by the printed parent chain. pIC50, pKd: −log10 of the molar value. Read-outs that look alike come from different tables or passages of the source.
# What was measured:
# FLT3 D835H = target: T1, FLT3 D835H (Homo sapiens, UniProt P36888, D835H); test: DiscoverX KINOMEscan competition binding, FLT3 D835H
# T1 construct: purchased DiscoverX (KINOMEscan)
# T1 sequence (P36888 27-993 D835H): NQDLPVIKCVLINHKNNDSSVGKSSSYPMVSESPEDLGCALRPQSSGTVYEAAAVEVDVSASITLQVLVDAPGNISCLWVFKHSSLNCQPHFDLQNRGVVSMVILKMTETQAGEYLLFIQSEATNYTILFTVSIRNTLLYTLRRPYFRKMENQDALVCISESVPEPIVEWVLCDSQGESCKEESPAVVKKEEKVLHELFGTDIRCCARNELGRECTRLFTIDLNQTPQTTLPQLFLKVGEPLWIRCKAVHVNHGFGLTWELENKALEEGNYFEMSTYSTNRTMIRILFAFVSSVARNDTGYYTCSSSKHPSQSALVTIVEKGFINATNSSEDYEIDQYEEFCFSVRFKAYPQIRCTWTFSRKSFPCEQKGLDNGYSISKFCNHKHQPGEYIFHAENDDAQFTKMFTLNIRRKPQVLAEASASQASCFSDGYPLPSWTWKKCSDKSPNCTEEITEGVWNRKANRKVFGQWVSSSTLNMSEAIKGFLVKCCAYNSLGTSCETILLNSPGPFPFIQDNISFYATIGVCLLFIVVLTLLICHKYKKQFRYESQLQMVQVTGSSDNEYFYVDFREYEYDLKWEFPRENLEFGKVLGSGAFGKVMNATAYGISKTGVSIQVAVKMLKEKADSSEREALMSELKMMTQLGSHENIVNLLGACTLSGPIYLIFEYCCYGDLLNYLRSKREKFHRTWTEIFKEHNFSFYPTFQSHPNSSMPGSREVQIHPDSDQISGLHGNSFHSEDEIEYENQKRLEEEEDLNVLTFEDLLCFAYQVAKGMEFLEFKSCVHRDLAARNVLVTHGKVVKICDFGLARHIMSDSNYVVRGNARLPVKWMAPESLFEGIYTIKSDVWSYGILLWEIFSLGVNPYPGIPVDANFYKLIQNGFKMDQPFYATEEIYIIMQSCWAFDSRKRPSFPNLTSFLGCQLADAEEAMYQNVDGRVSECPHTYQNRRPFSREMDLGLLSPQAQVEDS
# FLT3 N841I = target: T2, FLT3 N841I (Homo sapiens, UniProt P36888, N841I); test: DiscoverX KINOMEscan competition binding, FLT3 N841I
# T2 construct: purchased DiscoverX (KINOMEscan)
# T2 sequence (P36888 27-993 N841I): T1 sequence (P36888 27-993 D835H) with H809D, N815I
# MOLM14(D835Y) cells = format: cell-based; settings: for Excess HSA Score: 10 × 10
# IRAK1 = IRAK1 (Homo sapiens, UniProt P51617); test: RBC HotSpot Kinase Assay, IRAK1; settings: IRAK1 IC50
# IRAK4 = target: T3, IRAK4 (Homo sapiens, UniProt Q9NWZ3); test: RBC HotSpot Kinase Assay, IRAK4; settings: IRAK4 IC50
# T3 sequence (Q9NWZ3 1-460): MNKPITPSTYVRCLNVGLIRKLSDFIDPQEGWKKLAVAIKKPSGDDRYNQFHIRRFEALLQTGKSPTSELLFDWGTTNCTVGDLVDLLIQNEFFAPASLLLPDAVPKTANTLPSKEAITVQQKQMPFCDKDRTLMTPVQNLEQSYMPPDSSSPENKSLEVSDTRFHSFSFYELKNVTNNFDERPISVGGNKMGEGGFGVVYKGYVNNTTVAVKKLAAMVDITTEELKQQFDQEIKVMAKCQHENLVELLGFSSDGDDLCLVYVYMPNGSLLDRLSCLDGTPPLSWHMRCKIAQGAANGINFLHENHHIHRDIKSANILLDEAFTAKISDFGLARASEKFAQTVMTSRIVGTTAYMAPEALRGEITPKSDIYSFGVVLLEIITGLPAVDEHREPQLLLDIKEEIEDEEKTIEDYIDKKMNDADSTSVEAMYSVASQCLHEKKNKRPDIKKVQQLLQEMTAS
# [1] = MOLM14(D835Y) cells, combination with (+)-BAY-1251152
# [2] = MOLM14(D835Y) cells, combination with AMG-232
# [3] = MOLM14(D835Y) cells, combination with AZD-5363
# [4] = MOLM14(D835Y) cells, combination with Eprenetapopt/APR-246
# [5] = MOLM14(D835Y) cells, combination with Ivosidenib
# [6] = MOLM14(D835Y) cells, combination with Lenalidomide
# [7] = MOLM14(D835Y) cells, combination with Palbociclib
# [8] = MOLM14(D835Y) cells, combination with Prednisolone
# [9] = MOLM14(D835Y) cells, combination with SNDX-5613
# [10] = MOLM14(D835Y) cells, combination with TNO-155
# [11] = MOLM14(D835Y) cells, combination with Trametinib
# [12] = MOLM14(D835Y) cells, combination with Ulixertinib
# [13] = MOLM14(D835Y) cells, combination with Venetoclax (ABT-199)
# Sequence of IRAK1 (P51617 whole entry): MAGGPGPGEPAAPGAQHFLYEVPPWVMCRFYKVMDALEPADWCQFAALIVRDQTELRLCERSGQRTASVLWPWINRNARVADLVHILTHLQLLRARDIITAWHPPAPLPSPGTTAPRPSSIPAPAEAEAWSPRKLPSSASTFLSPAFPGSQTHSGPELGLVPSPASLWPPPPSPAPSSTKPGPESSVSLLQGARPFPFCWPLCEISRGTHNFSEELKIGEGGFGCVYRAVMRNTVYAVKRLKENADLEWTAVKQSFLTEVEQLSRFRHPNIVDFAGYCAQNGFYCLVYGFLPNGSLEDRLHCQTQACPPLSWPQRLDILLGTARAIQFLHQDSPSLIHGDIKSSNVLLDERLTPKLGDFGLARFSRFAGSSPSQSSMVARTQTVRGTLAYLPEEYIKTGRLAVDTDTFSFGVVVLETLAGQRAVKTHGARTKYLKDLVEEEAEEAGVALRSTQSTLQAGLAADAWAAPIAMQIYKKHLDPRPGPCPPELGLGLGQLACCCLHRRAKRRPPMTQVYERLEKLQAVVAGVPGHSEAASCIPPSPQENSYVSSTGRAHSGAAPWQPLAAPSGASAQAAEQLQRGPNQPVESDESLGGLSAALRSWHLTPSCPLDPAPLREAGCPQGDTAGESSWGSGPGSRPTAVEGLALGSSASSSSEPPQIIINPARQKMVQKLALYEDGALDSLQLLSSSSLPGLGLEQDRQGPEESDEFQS
smiles,measurement,setting,value
"COc1cc2ncc(-c3cncc(N[C@H]4CNCC[C@@H]4F)n3)n2nc1C1CC1 [Compound 24, 6-(6-cyclopropyl-7-methoxyimidazo[1,2-b]pyridazin-3-yl)-N-((3S,4S)-4-fluoropiperidin-3-yl)pyrazin-2-amine]",pKd,FLT3 D835H,9.48
same,pKd,FLT3 N841I,9.29
same,Excess HSA Score,MOLM14(D835Y) cells; [1],−245.2
same,Excess HSA Score,MOLM14(D835Y) cells; [2],468.3
same,Excess HSA Score,MOLM14(D835Y) cells; [3],−1011
same,Excess HSA Score,MOLM14(D835Y) cells; [4],143
same,Excess HSA Score,MOLM14(D835Y) cells; [5],282.2936
same,Excess HSA Score,MOLM14(D835Y) cells; [6],491.2
same,Excess HSA Score,MOLM14(D835Y) cells; [7],−732.6
same,Excess HSA Score,MOLM14(D835Y) cells; [8],169.8
same,Excess HSA Score,MOLM14(D835Y) cells; [9],−279.3
same,Excess HSA Score,MOLM14(D835Y) cells; [10],−1249
same,Excess HSA Score,MOLM14(D835Y) cells; [11],−336.8
same,Excess HSA Score,MOLM14(D835Y) cells; [12],−260.4
same,Excess HSA Score,MOLM14(D835Y) cells; [13],−1890
same,Comments,MOLM14(D835Y) cells; [4],Antagonistic
same,Comments,MOLM14(D835Y) cells; [13],Synergistic
same,Excess HSA Score,"MOLM14(D835Y) cells; MOLM14(D835Y), title compound starting conc. 200 nM + (+)-BAY-1251152 starting conc. 1000 nM",−369.2
same,Excess HSA Score,"MOLM14(D835Y) cells; MOLM14(D835Y), title compound starting conc. 200 nM + Azacitidine (5-Azacytidine) starting conc. 20000 nM",−594
same,Excess HSA Score,"MOLM14(D835Y) cells; MOLM14(D835Y), title compound starting conc. 200 nM + Palbociclib starting conc. 10000 nM",−490.9
same,Excess HSA Score,"MOLM14(D835Y) cells; MOLM14(D835Y), title compound starting conc. 200 nM + Prednisolone starting conc. 10000 nM",12.1697
same,Excess HSA Score,"MOLM14(D835Y) cells; MOLM14(D835Y), title compound starting conc. 200 nM + TNO-155 starting conc. 10000 nM",−944.7
same,Excess HSA Score,"MOLM14(D835Y) cells; MOLM14(D835Y), title compound starting conc. 200 nM + Venetoclax (ABT-199) starting conc. 2000 nM",−764.8
same,Excess HSA Score,"MOLM14(D835Y) cells; MOLM14(D835Y), title compound starting conc. 200 nM + Venetoclax (ABT-199) starting conc. 20000 nM",−71.65
same,Excess HSA Score,"MOLM14(D835Y) cells; MOLM14(D835Y), title compound starting conc. 20000 nM + (+)-BAY-1251152 starting conc. 1000 nM",−47.77
same,Excess HSA Score,"MOLM14(D835Y) cells; MOLM14(D835Y), title compound starting conc. 20000 nM + Azacitidine (5-Azacytidine) starting conc. 20000 nM",−49.15
same,Excess HSA Score,"MOLM14(D835Y) cells; MOLM14(D835Y), title compound starting conc. 20000 nM + Palbociclib starting conc. 10000 nM",182.1
same,Excess HSA Score,"MOLM14(D835Y) cells; MOLM14(D835Y), title compound starting conc. 20000 nM + Prednisolone starting conc. 10000 nM",153.7
same,Excess HSA Score,"MOLM14(D835Y) cells; MOLM14(D835Y), title compound starting conc. 20000 nM + TNO-155 starting conc. 10000 nM",−94.76
same,Excess HSA Score,"MOLM14(D835Y) cells; MOLM14(D835Y), title compound starting conc. 20000 nM + Venetoclax (ABT-199) starting conc. 2000 nM",−501.6
same,Excess HSA Score,"MOLM14(D835Y) cells; MOLM14(D835Y), title compound starting conc. 20000 nM + Venetoclax (ABT-199) starting conc. 20000 nM",−122.6
same,pIC50,IRAK1,7.40
same,pIC50,IRAK4,9.15
"CC(O)(c1cn2c(-c3ccnc(N[C@H]4CNCC[C@@H]4F)n3)cnc2cn1)C(F)(F)F (single isomer, unassigned) [Compound 72]",pKd,FLT3 D835H,8.96
same,pKd,FLT3 N841I,8.13
same,Excess HSA Score,MOLM14(D835Y) cells; [1],179
same,Excess HSA Score,MOLM14(D835Y) cells; [2],−165.4
same,Excess HSA Score,MOLM14(D835Y) cells; [3],−687.9
same,Excess HSA Score,MOLM14(D835Y) cells; [4],−80.14
same,Excess HSA Score,MOLM14(D835Y) cells; [5],−168.3
same,Excess HSA Score,MOLM14(D835Y) cells; [6],407.4
same,Excess HSA Score,MOLM14(D835Y) cells; [7],−390.1
same,Excess HSA Score,MOLM14(D835Y) cells; [8],717.2
same,Excess HSA Score,MOLM14(D835Y) cells; [9],−77.23
same,Excess HSA Score,MOLM14(D835Y) cells; [10],−797.6
same,Excess HSA Score,MOLM14(D835Y) cells; [11],218.5
same,Excess HSA Score,MOLM14(D835Y) cells; [12],672.6
same,Excess HSA Score,MOLM14(D835Y) cells; [13],−1396
same,Comments,MOLM14(D835Y) cells; [1],Antagonistic
same,Comments,MOLM14(D835Y) cells; [13],Synergistic
same,pIC50,IRAK1,8.52
same,pIC50,IRAK4,9.15
